Assay results: patent publication US7902373B2 (Pfizer Inc, priority 2006, dated 2011)

Each compound was assayed against human recombinant H-PGDS (Homo sapiens, UniProt O60760) (assay: Fluorescence intensity h-PGDS TBA enzyme assay). Settings: Examples up to 622 (and 3a, 3b).
Type: biochemical

human recombinant H-PGDS, sequence (O60760 whole entry): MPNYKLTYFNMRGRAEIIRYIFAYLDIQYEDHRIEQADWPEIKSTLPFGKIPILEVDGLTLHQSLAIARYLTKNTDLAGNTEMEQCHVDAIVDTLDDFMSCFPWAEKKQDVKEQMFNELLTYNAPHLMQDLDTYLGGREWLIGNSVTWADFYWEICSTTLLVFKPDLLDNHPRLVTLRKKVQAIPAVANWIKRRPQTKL

Structure (SMILES) | IC50 [nM]
CCCn1cc(CN2CCC(NC(=O)c3ccc(-c4cccc(F)c4)nc3)CC2)c(C)n1 [Example 427, 6-(3-Fluorophenyl)-N-{1-[(3-methyl-1-propyl-1H-pyrazol-4-yl)methyl]piperidin-4-yl}nicotinamide] | 0.656
CC(C)Oc1ccc(CN2CCC(NC(=O)c3ccc(-c4cccc(F)c4)nc3)CC2)cc1CO [Example 428, 6-(3-Fluorophenyl)-N-{1-[3-(hydroxymethyl)-4-isopropoxybenzyl]piperidin-4-yl}nicotinamide] | 0.926
CC(C)Cc1cc(CN2CCC(NC(=O)c3ccc(-c4cccc(F)c4)nc3)CC2)n[nH]1 [Example 429, 6-(3-Fluorophenyl)-N-{1-[(5-isobutyl-1H-pyrazol-3-yl)methyl]piperidin-4-yl}nicotinamide] | 1.12
O=C(NC1CCN(Cc2ccc3cccc(F)c3n2)CC1)c1ccc(-c2cccc(F)c2)nc1 [Example 430, 6-(3-Fluorophenyl)-N-{1-[(8-fluoroquinolin-2-yl)methyl]piperidin-4-yl}nicotinamide] | 1.2
CCn1ccnc1CN1CCC(NC(=O)c2ccc(-c3cccc(F)c3)nc2)CC1 [Example 431, N-{1-[(1-Ethyl-1H-imidazol-2-yl)methyl]piperidin-4-yl}-6-(3-fluorophenyl)nicotinamide] | 0.822
Cc1c(CN2CCC(NC(=O)c3ccc(-c4cccc(F)c4)nc3)CC2)nc2ccccn12 [Example 432, 6-(3-Fluorophenyl)-N-{1-[(3-methylimidazo[1,2-a]pyridin-2-yl)methyl]piperidin-4-yl}nicotinamide] | 0.962
CC(C)c1csc(CN2CCC(NC(=O)c3ccc(-c4cccc(F)c4)nc3)CC2)n1 [Example 433, 6-(3-Fluorophenyl)-N-{1-[(4-isopropyl-1,3-thiazol-2-yl)methyl]piperidin-4-yl}nicotinamide] | 0.401
Cc1ccccc1-c1ncc(CN2CCC(NC(=O)c3ccc(-c4cccc(F)c4)nc3)CC2)cn1 [Example 434, 6-(3-Fluorophenyl)-N-(1-{[2-(2-methylphenyl)pyrimidin-5-yl]methyl}piperidin-4-yl)nicotinamide] | 1.51
Cc1cccc(-n2ccnc2CN2CCC(NC(=O)c3ccc(-c4cccc(F)c4)nc3)CC2)c1 [Example 435, 6-(3-Fluorophenyl)-N-(1-{[1-(3-methylphenyl)-1H-imidazol-2-yl]methyl}piperidin-4-yl)nicotinamide] | 0.908
O=C(NC1CCN(Cc2ccccc2Cn2cccn2)CC1)c1ccc(-c2cccc(F)c2)nc1 [Example 436, 6-(3-Fluorophenyl)-N-{1-[2-(1H-pyrazol-1-ylmethyl)benzyl]piperidin-4-yl}nicotinamide] | 0.885
COc1ccccc1-c1ncc(CN2CCC(NC(=O)c3ccc(-c4cccc(F)c4)nc3)CC2)cn1 [Example 437, 6-(3-Fluorophenyl)-N-(1-{[2-(2-methoxyphenyl)pyrimidin-5-yl]methyl}piperidin-4-yl)nicotinamide] | 3.52
Cc1ccc(-n2cccn2)c(CN2CCC(NC(=O)c3ccc(-c4cccc(F)c4)nc3)CC2)c1 [Example 438, 6-(3-Fluorophenyl)-N-{1-[5-methyl-2-(1H-pyrazol-1-yl)benzyl]piperidin-4-yl}nicotinamide] | 0.417
O=C(NC1CCN(Cc2c[nH]nc2-c2cccc(F)c2)CC1)c1ccc(-c2cccc(F)c2)nc1 [Example 439, 6-(3-Fluorophenyl)-N-(1-{[3-(3-fluorophenyl)-1H-pyrazol-4-yl]methyl}piperidin-4-yl)nicotinamide] | 0.762
COCCc1ncc(CN2CCC(NC(=O)c3ccc(-c4cccc(F)c4)nc3)CC2)cn1 [Example 440, 6-(3-Fluorophenyl)-N-(1-{[2-(2-methoxyethyl)pyrimidin-5-yl]methyl}piperidin-4-yl)nicotinamide] | 1.96
CCCc1ncc(CN2CCC(NC(=O)c3ccc(-c4cccc(F)c4)nc3)CC2)cn1 [Example 441, 6-(3-Fluorophenyl)-N-{1-[(2-propylpyrimidin-5-yl)methyl]piperidin-4-yl}nicotinamide] | 2.58
CCc1ncc(CN2CCC(NC(=O)c3ccc(-c4cccc(F)c4)nc3)CC2)cn1 [Example 442, N-{1-[(2-Ethylpyrimidin-5-yl)methyl]piperidin-4-yl}-6-(3-fluorophenyl)nicotinamide] | 2.78
Cc1ncc(CN2CCC(NC(=O)c3ccc(-c4cccc(F)c4)nc3)CC2)cn1 [Example 443, 6-(3-Fluorophenyl)-N-{1-[(2-methylpyrimidin-5-yl)methyl]piperidin-4-yl}nicotinamide] | 1.59
Cc1nc(C)c(CN2CCC(NC(=O)c3ccc(-c4cccc(F)c4)nc3)CC2)nc1C [Example 444, 6-(3-Fluorophenyl)-N-{1-[(3,5,6-trimethylpyrazin-2-yl)methyl]piperidin-4-yl}nicotinamide] | 0.135
Cc1nc2ccc(Cl)cn2c1CN1CCC(NC(=O)c2ccc(-c3cccc(F)c3)nc2)CC1 [Example 445, N-{1-[(6-Chloro-2-methylimidazo[1,2-a]pyridin-3-yl)methyl]piperidin-4-yl}-6-(3-fluorophenyl)nicotinamide] | 4.24

Structure (SMILES) | IC50 [nM]
Cc1ncc(CN2CCC(NC(=O)c3ccc(-c4cccc(F)c4)nc3)CC2)s1 [Example 446, 6-(3-Fluorophenyl)-N-{1-[(2-methyl-1,3-thiazol-5-yl)methyl]piperidin-4-yl}nicotinamide] | 0.891
COCn1c(CN2CCC(NC(=O)c3ccc(-c4cccc(F)c4)nc3)CC2)nc2ccccc21 [Example 447, 6-(3-Fluorophenyl)-N-(1-{[1-(methoxymethyl)-1H-benzimidazol-2-yl]methyl}piperidin-4-yl)nicotinamide] | 1.1
O=C(NC1CCN(Cc2nc3cccc4c3n2CCC4)CC1)c1ccc(-c2cccc(F)c2)nc1 [Example 448, N-[1-(5,6-Dihydro-4H-imidazo[4,51-ij]quinolin-2-ylmethyl)piperidin-4-yl]-6-(3-fluorophenyl)nicotinamide] | 2.45
Cn1c(CN2CCC(NC(=O)c3ccc(-c4cccc(F)c4)nc3)CC2)nc2cc(F)c(F)cc21 [Example 449, N-{1-[(5,6-Difluoro-1-methyl-1H-benzimidazol-2-yl)methyl]piperidin-4-yl}-6-(3-fluorophenyl)nicotinamide] | 2.8
O=C(NC1CCN(Cc2ccnc3cccnc23)CC1)c1ccc(-c2cccc(F)c2)nc1 [Example 450, 6-(3-Fluorophenyl)-N-[1-(1,5-naphthyridin-4-ylmethyl)piperidin-4-yl]nicotinamide] | 2.05
O=C(NC1CCN(Cc2ccnc3nccnc23)CC1)c1ccc(-c2cccc(F)c2)nc1 [Example 451, 6-(3-Fluorophenyl)-N-[1-(pyrido[2,3-b]pyrazin-8-ylmethyl)piperidin-4-yl]nicotinamide] | 0.88
O=C(NC1CCN(Cc2ccnc3ncccc23)CC1)c1ccc(-c2cccc(F)c2)nc1 [Example 452, 6-(3-Fluorophenyl)-N-[1-(1,8-naphthyridin-4-ylmethyl)piperidin-4-yl]nicotinamide] | 0.724
O=C(NC1CCN(Cc2ccc(CN3CCOCC3)cc2)CC1)c1ccc(-c2cccc(F)c2)nc1 [Example 453, 6-(3-Fluorophenyl)-N-{1-[4-(morpholin-4-ylmethyl)benzyl]piperidin-4-yl}nicotinamide] | 1.42
Cc1nnc(-c2ccc(CN3CCC(NC(=O)c4ccc(-c5cccc(F)c5)nc4)CC3)cc2)o1 [Example 454, 6-(3-Fluorophenyl)-N-{1-[4-(5-methyl-1,3,4-oxadiazol-2-yl)benzyl]piperidin-4-yl}nicotinamide] | 0.82
Cc1cnc(CN2CCC(NC(=O)c3ccc(-c4cccc(F)c4)nc3)CC2)cn1 [Example 455, 6-(3-Fluorophenyl)-N-{1-[(5-methylpyrazin-2-yl)methyl]piperidin-4-yl}nicotinamide] | 1.34
O=C(NC1CCN(Cc2nc3cccc4c3n2CC=C4)CC1)c1ccc(-c2cccc(F)c2)nc1 [Example 456, 6-(3-Fluorophenyl)-N-[1-(4H-imidazo[4,51-ij]quinolin-2-ylmethyl)piperidin-4-yl]nicotinamide] | 2.05
CCOC(=O)c1csc(CN2CCC(NC(=O)c3ccc(-c4cccc(F)c4)nc3)CC2)n1 [Example 457, Ethyl 2-{[4-({[6-(3-fluorophenyl)pyridin-3-yl]carbonyl}amino)piperidin-1-yl]methyl}-1,3-thiazole-4-carboxylate] | 0.76
C[C@@H]1Oc2ccc(CN3CCC(NC(=O)c4ccc(-c5cccc(F)c5)nc4)CC3)cc2[C@H]1C(=O)O [Example 458, (2S,3R)-5-{[4-({[6-(3-Fluorophenyl)pyridin-3-yl]carbonyl}amino)piperidin-1-yl]methyl}-2-methyl-2,3-dihydro-1-benzofuran-3-carboxylic acid] | 1.78
CCOc1ncccc1CN1CCC(NC(=O)c2ccc(-c3cccc(F)c3)nc2)CC1 [Example 459, N-{1-[(2-Ethoxypyridin-3-yl)methyl]piperidin-4-yl}-6-(3-fluorophenyl)nicotinamide] | 0.721
COc1ncccc1CN1CCC(NC(=O)c2ccc(-c3cccc(F)c3)nc2)CC1 [Example 460, 6-(3-Fluorophenyl)-N-{1-[(2-methoxypyridin-3-yl)methyl]piperidin-4-yl}nicotinamide] | 1.28
CC(C)Oc1ncccc1CN1CCC(NC(=O)c2ccc(-c3cccc(F)c3)nc2)CC1 [Example 461, 6-(3-Fluorophenyl)-N-{1-[(2-isopropoxypyridin-3-yl)methyl]piperidin-4-yl}nicotinamide] | 0.239
O=C(NC1CCN(Cc2cccnc2OCC2CC2)CC1)c1ccc(-c2cccc(F)c2)nc1 [Example 462, N-(1-{[2-(Cyclopropylmethoxy)pyridin-3-yl]methyl}piperidin-4-yl)-6-(3-fluorophenyl)nicotinamide] | 0.264
O=C(NC1CCN(Cc2cccc(CF)n2)CC1)c1ccc(-c2cccc(F)c2)nc1 [Example 463, N-(1-{[6-(Fluoromethyl)pyridin-2-yl]methyl}piperidin-4-yl)-6-(3-fluorophenyl)nicotinamide] | 0.385
CC(C)(O)c1cc(CN2CCC(NC(=O)c3ccc(-c4cccc(F)c4)nc3)CC2)ccn1 [Example 464, 6-(3-Fluorophenyl)-N-(1-{[2-(1-hydroxy-1-methylethyl)pyridin-4-yl]methyl}piperidin-4-yl)nicotinamide] | 1.02
